According to PubChem BioAssay (NCI):
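These data come from cells grown in 96-well plates and exposed to compound for 48 hours at five concentrations. GI50: concentration for 50% inhibition of growth. TGI marks complete inhibition of growth.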

Tests used:
Test in all cases: growth of human tumour cells (NCI), 48 h
HCT-116 colon = test system: HCT-116 colon
SK-OV-3 ovarian = test system: SK-OV-3 ovarian
SK-MEL-28 melanoma = test system: SK-MEL-28 melanoma
HS 578T breast = test system: HS 578T breast
PC-3 prostate = test system: PC-3 prostate
MDA-N = test system: MDA-N
NCI-H460 lung = test system: NCI-H460 lung
SK-MEL-2 melanoma = test system: SK-MEL-2 melanoma
NCI-H522 lung = test system: NCI-H522 lung

Compound	TGI (HCT-116 colon)	TGI (SK-OV-3 ovarian)	TGI (SK-MEL-28 melanoma)	TGI (HS 578T breast)	TGI (PC-3 prostate)	TGI (MDA-N)	TGI (NCI-H460 lung)	TGI (SK-MEL-2 melanoma)	TGI (NCI-H522 lung)	GI50 (HCT-116 colon)	GI50 (SK-OV-3 ovarian)	GI50 (SK-MEL-28 melanoma)	GI50 (HS 578T breast)	GI50 (PC-3 prostate)	GI50 (NCI-H460 lung)	GI50 (SK-MEL-2 melanoma)
CC(C)OC(=O)c1ccc(NCC2=CC(=O)C=CC2=O)cc1Cl	> 53.2 µM	> 100 µM	56.5 µM	> 100 µM	> 100 µM	25.2 µM	41 µM	> 100 µM								
O=C1C=Cc2c(Cl)sc(Cl)c21	2.33 µM	28.5 µM	3.97 µM		4.83 µM		45.2 µM	5.32 µM								
COc1cc(Oc2nc3ccccc3nc2C(=O)O)cc(OC)c1OC	> 100 µM	> 100 µM	> 100 µM	> 100 µM	> 100 µM		> 100 µM	> 100 µM	> 100 µM							
CCN1CCN(C(=O)[C@]23CC[C@@H](C)[C@H](C)[C@@H]2C2=CC[C@@H]4[C@@]5(C)C/C(=C/c6cccnc6)C(=O)C(C)(C)[C@@H]5CC[C@@]4(C)[C@]2(C)CC3)CC1	3.55 µM	9.2 µM	3.15 µM	4.77 µM	3.85 µM		3.45 µM	4.76 µM		1.69 µM	2.7 µM	1.75 µM	1.91 µM	1.49 µM	1.78 µM	2.12 µM
Nn1c(Cc2ccc(Cl)cc2)n[nH]c1=O	> 100 µM	> 100 µM	> 100 µM	> 100 µM		> 100 µM	> 100 µM	> 100 µM	> 100 µM							
Oc1ccc2c(c1)-c1c(c3cc(O)ccc3n1CCN1CCOCC1)CC2	44.8 µM	81.2 µM	61.9 µM	> 100 µM	54.4 µM			37.7 µM	40.4 µM							
COc1ccc(/C=N\N2CC(=O)N3C4C=CC(CC4)N3C2=O)cc1 (centres undefined)	> 100 µM	> 100 µM	> 100 µM	> 100 µM	> 100 µM	> 100 µM	> 100 µM	> 100 µM								
C[C@]12CC[C@H]3[C@@H](CCC4=CC(=O)C=C[C@@]43O)[C@@H]1CCC2=O	> 100 µM		> 100 µM		> 100 µM	> 100 µM	> 100 µM	> 100 µM								
O=[N+]([O-])C(/C(Cl)=C(/Cl)N1CCOCC1)=C1\NCCO1	> 100 µM	> 100 µM	> 100 µM	> 100 µM	> 100 µM	> 100 µM	> 100 µM	> 100 µM								
CC(C)(C)c1cc(C(O)(C(=O)O)C(=O)O)cc(C(C)(C)C)c1O	> 100 µM	> 100 µM	> 100 µM	> 100 µM	> 100 µM	> 100 µM		> 100 µM	> 100 µM							
Cc1cc2c(cc1-c1cc3c(cc1C)C(C(C)C)=C(O)C(=O)/C3=C\Nc1nc(-c3ccccc3)cs1)/C(=C/Nc1nc(-c3ccccc3)cs1)C(=O)C(O)=C2C(C)C	> 100 µM	95.2 µM	30.4 µM	> 100 µM	37.3 µM	> 100 µM	46 µM	50.9 µM								
CC1CN=C(Nc2cccc(C(F)(F)F)c2)S1 (centres undefined)	> 100 µM	> 100 µM	> 100 µM	> 100 µM		> 100 µM	> 100 µM	> 100 µM	> 100 µM							
C=CCOc1ccc(C2c3c([nH][nH]c3=O)CC(O)(OCC)C2C(=O)OCC)cc1OC (centres undefined)	> 100 µM		> 100 µM	> 100 µM	> 100 µM	> 100 µM	> 100 µM	> 100 µM	> 100 µM							
CCOC(=O)C1=CN=C2C(=O)N(c3ccccc3)N(C)C2(C)C1=N (centres undefined)	> 100 µM	> 100 µM	> 100 µM		> 100 µM	> 100 µM	> 100 µM	> 100 µM	> 100 µM							
Cc1cc(O)c(C(C)C)cc1NC(=O)Nc1cccc2ccccc12	36.6 µM		55.8 µM	62.6 µM	29.2 µM	27.6 µM	41.4 µM	30.4 µM	54.1 µM							
CSC1=Nc2ccccc2-c2nc(-c3ccccc3)cc(-c3ccccc3)c2C1	30.7 µM	30.6 µM	> 100 µM		> 100 µM	> 100 µM	> 100 µM		40.1 µM							
O=S(=O)(c1ccccc1)n1c(C(O)c2ccncc2)cc2ccccc21 (centres undefined)	> 100 µM	> 100 µM	> 100 µM		> 100 µM	> 100 µM	> 100 µM	> 100 µM								
CCSc1ncnc2c(C3OC(CO)C(O)C3O)nsc12 (centres undefined)	> 100 µM	> 100 µM	> 100 µM	> 100 µM	> 100 µM	> 100 µM		> 100 µM								
c1ccc2c(c1)c1c(n2CCOCCN2CCCCC2)CCCC1	25 µM	34.9 µM	58 µM	32.1 µM	22.2 µM	28.7 µM	28.2 µM	21.1 µM								
CCOC(=O)c1ccc(-c2cc(C)[nH]n2)[nH]1	> 100 µM	> 100 µM	> 100 µM		> 100 µM	> 100 µM	> 100 µM	> 100 µM	> 100 µM							
CC(=O)Nc1ccc(S(=O)(=O)Nc2nnc(S(N)(=O)=O)s2)cc1	> 100 µM	> 100 µM					> 100 µM		> 100 µM							
CN(C(=O)C12C3C4(C(=O)O)C1(C(=O)N(C)C(C)(C)C)C1C2(C(=O)O)C3(C(=O)N(C)C(C)(C)C)C14C(=O)N(C)C(C)(C)C)C(C)(C)C (centres undefined)	> 100 µM		> 100 µM	> 100 µM	> 100 µM	> 100 µM	> 100 µM	> 100 µM	> 100 µM							
C(=N\Nc1ncc(-c2cc3cc4c(cc3o2)OCO4)s1)/c1c[nH]c2ccccc12	10.2 µM		12.2 µM	6.02 µM	6.2 µM			8.07 µM		2.13 µM		3.17 µM	2.02 µM	0.519 µM		2.6 µM
Nc1ccc2c(c1)C1Oc3ccccc3CC1CO2 (centres undefined)	> 100 µM	> 100 µM			> 100 µM	> 100 µM		> 100 µM	> 100 µM							
Cc1cc(S(=O)(=O)Nc2nc3ccsc3c(=O)n2N)c(S)cc1Cl	> 100 µM	> 100 µM	> 100 µM		> 100 µM	> 100 µM	> 100 µM	> 100 µM	> 100 µM							
